{"source": "patent US6403554B2", "about": "“Polyunsaturated fatty acid derivatives and their use” (Ardenia Investments Ltd., priority 1998, dated 2002)", "key": {"[1]": {"tested_on": "antibody-forming cells (AFC) in the spleen", "experiment": "Influence of human AFP/compound complex and compound alone on humoral immune response, C57B1/6 male mice", "assay_type": "in vivo", "conditions": "compound alone", "procedure": "The influence of complexes of AFP with one of the title compounds 1-4, 1a-4a, 5-20 as well as their basic components on humoral immune response was estimated by counting the quantity of antibody-forming cells (AFC) in the mice spleen.\n(§1) 0.15 ml of AFP/Compound 3 complex was administered intravenously to 6 mice males of C57B1/6 line (weight 18-22 g) in the dose of […] of AFP and 45.5 μg of compound 3 per capita. Simultaneously suspension of 5·10^7 sheep erythrocytes was injected intraperitoneally (0.2 ml per capita). In the group with compound 3 mice were injected intravenously by one in the dose of 45.5 μg. Animals of group with AFP received 9 μg of AFP. Mice of control group were injected intravenously with equal volume of saline. Complex AFP/Compound 3 effect on humoral immune response was analyzed by counting the quantity of AFC in the spleen according to Cunningham (per 10^6 spleen cells and per spleen).\n(§2) 0.15 ml of AFP/Compound 2a complex (1:100) was administered intravenously to 6 mice males of C57B1/6 line (weight 18-22 g) in the dose of 9 μg of AFP and 45.5 μg of compound 2a per capita. Simultaneously, a suspension of 5·10^7 sheep erythrocytes was injected intraperitoneally (0.2 ml per capita). In the group with compound 2a mice were injected intravenously by one in the dose of 45.5 μg. Animals of group with AFP received 9 μg of AFP. Mice in the control group were injected intravenously with an equal volume of saline. The effect of the AFP/Compound 2a complex on humoral immune response was analyzed by counting the quantity of AFC in the spleen according to Cunningham (per 10^6 spleen cells and per spleen).\n(§3) 0.15 ml of AFP/Compound 10 complex (1:200) was administered intravenously to 6 male mice of C57B1/6 line (weight 18-22 g) in the dose of 9 μg of AFP and 91 μg of compound 10 per capita. Simultaneously, a suspension of 5·10^7 sheep erythrocytes was injected intraperitoneally (0.2 ml per capita). In the group receiving compound 10 mice were injected intravenously by one in the dose of 91 μg. Animals in the group with AFP received 9 μg of AFP. Micein the control group were injected intravenously with an equal volume of saline. The effect of the AFP/Compound 10 complex on humoral immune response was analyzed by counting the quantity of AFC in the spleen according to Cunningham (per 10^6 spleen cells and per spleen).\nas §3, with “AFP/Compound 14” for “AFP/Compound 10”, “compound 14” for “compound 10”, “group with” for “group receiving”, “Animals of” for “Animals in the”, “AFP. Mice in” for “AFP. Micein”"}, "[2]": {"tested_on": "antibody-forming cells (AFC) in the spleen", "experiment": "Influence of compound on humoral immune response to sheep erythrocytes, C57B1/6 female mice (AFC in spleen, hemagglutinins)", "assay_type": "in vivo", "conditions": "for Amount of antibody-forming cells per 10^6 spleen cells / Amount of antibody-forming cells per spleen: M ± SEM; for Spleen index: with SRBC i.p.; for Amount of hemagglutinins: serum", "procedure": "The increase was calculated as compared with the amount of cells in the animals immunised only with sheep erythrocytes.\n(§4) 0.15 ml of compound 10 was administered intravenously to 6 mice females of CS7B1/6 line (weight 18-22 g) in doses of 45.5, 91 and 136.5 μg of compound 10 per capita for each testing group according to the dose. Simultaneously, a suspension of 5·10^7 sheep erythrocytes was injected intraperitoneally (0.2 ml per capita). Mice in the control group were injected intravenously with equal volume of saline. The effects of compound 10 on humoral immune response were analyzed both by counting the quantity of AFC in the spleen according to Cunningham (per 10^6 spleen cells and per spleen) and estimating the titers of hemagglutining antibodies in serum of the animals (Cunningham A. J., Nature, 1965, Vol.207, No 5001. P.1106-1107), while the titers of hemagglutinating antibodies were evaluated according to litterature (Evans J. et al., Cell, 1974; Vol 3., p.153-158, Feizi T., Menger E., Transfusion, 1970, Vol. 10, p.33-35,).\n(§5) 0.15 ml of compound 11 was administered intravenously to 6 female mice of the C57B1/6 line (weight 18-22 g) in doses of 45.5, 91 and 136.5 μg of compound 11 per capita for each testing group according to the dose. Simultaneously, a suspension of 5·10^7 sheep erytrocytes was injected intraperitoneally (0.2 ml per capita). Mice in the control group were injected intravenously with an equal volume of saline. The effects of compound 11 on humoral immune response was analysed both by counting the quantity of AFC in the spleen according to Cunningham (per 10^6 spleen cells and per spleen) and estimating the titers of hemagglutining antibodies in serum of the animals.\nas §5, with “12” for “11”, “erythrocytes” for “erytrocytes”, “analyzed” for “analysed”\nas §5, with “compound 8” for “compound 11”, “sheep erythrocytes” for “sheep erytrocytes”, “Mice of” for “Mice in”, “response were analyzed” for “response was analysed”\n0.15 ml of compound 3 was administered intravenously to 6 female mice of the C57B1/6 line (weight 18-22 g) in doses of 45.5, 91 and 136.5 μg of compound 3 per capita for each testing group according to the dose. Simultaneously, a suspension of 5·10^7 sheep erytrocytes was injected intraperitoneally (0.2 ml per capita). Mice of the control group were injected intravenously with equal volume of saline."}, "[3]": {"tested_on": "hemagglutinating antibodies in serum", "experiment": "Humoral immune response: titers of hemagglutinating antibodies in serum", "assay_type": "in vivo, C57B1/6 mice", "conditions": "serum, female mice"}, "[4]": {"tested_on": "antibody-forming cells (AFC) in the spleen", "experiment": "Humoral immune response: counting antibody-forming cells (AFC) in the spleen according to Cunningham, mice immunised with sheep erythrocytes", "assay_type": "in vivo, C57B1/6 mice", "conditions": "compound alone", "procedure": "as §4, §5\nas §5, with “12” for “11”, “erythrocytes” for “erytrocytes”, “analyzed” for “analysed”\nas §5, with “compound 8” for “compound 11”, “sheep erythrocytes” for “sheep erytrocytes”, “Mice of” for “Mice in”, “response were analyzed” for “response was analysed”\nas §5, with “compound 3” for “compound 11”, “Mice of” for “Mice in”, “with” for “with an”, “response were” for “response was”\n0.15 ml of compound 4 was administered intravenously to 6 female mice of the C57B1/6 line (weight 18-22 g) in a doses of 45.5, 91 and 136.5 μg of compound 4 per capita for each testing group according to the dose. Simultaneously, a suspension of 5·10^7 sheep erythrocytes was injected intraperitoneally (0.2 ml per capita). […]"}, "[5]": {"tested_on": "antibody-forming cells (AFC) in the spleen", "experiment": "Influence of AFP/compound complexes and their components on humoral immune response (AFC in spleen)", "assay_type": "in vivo, C57B1/6 mice", "conditions": "for Dose at which immunostimulating effect in vivo is displayed: compound in a complex with AFP", "procedure": "as §1, §2, §3\nas §3, with “AFP/Compound 14” for “AFP/Compound 10”, “compound 14” for “compound 10”, “group with” for “group receiving”, “Animals of” for “Animals in the”, “AFP. Mice in” for “AFP. Micein”\n0.15 ml of AFP/Compound 7 complex (1:200) was administered intravenously to 6 male mice of C57B1/6 line (weight 18-22 g) in the dose of 9 μg of AFP and 91 μg of compound 7 per capita. Simultaneously, a suspension of 5·10^7 sheep erythrocytes was injected intraperitoneally (0.2 ml per capita). In the group with compound 7 mice were injected intravenously by one in the dose of 91 μg. Animals of group with AFP received 9 μg of AFP. Mice of control group were injected intravenously with equal volume of saline. AFP/Compound 7 complex effect on humoral immune response was analyzed by counting the quantity of AFC in the spleen according to Cunningham (per 10^6 spleen cells and per spleen).\n0.15 ml of AFP/Compound 15 complex (1:200) was administered intravenously to 6 mice males of C57B1/6 line (weight 18-22 g) in the dose of 9 μg of AFP and 91 μg of compound 15 per capita. Simultaneously, a suspension of 5·10^7 sheep erythrocytes was injected intraperitoneally (0.2 ml per capita). In the group receiving compound 15, the mice were injected intravenously by one in the dose of 91 μg. Animals in the AFP-group received 9 μg of AFP. […]"}, "[6]": {"conditions": "45.5 μg/mouse, i.v., 5th day, vs control"}}, "note": "Entries after “also recorded” stand apart in the source; their conditions may differ.", "data": [{"molecule": "CC1=C(/C=C/C(C)=C/C=C/C(C)=C/C(=O)N[C@H](C(=O)O)[C@@H](C)OP(=O)(O)O)C(C)(C)CCC1", "note": "(relative stereo) [Compound 3, N-(all-trans-Retinoyl)-O-phospho-L-threonine]", "values": [{"measurement": "Immunogenic activity", "setting": "[1]; 45.5 μg/mouse", "result": "no immunogenic activity; also recorded: do not inhibit immunogenic activity"}, {"measurement": "relative amount of AFC", "setting": "[1]; 45.5 μg/mouse i.v., 5th day", "result": "472.2±52.4 cells per 10^6 spleen cells"}, {"measurement": "total AFC amount", "setting": "[1]; 45.5 μg/mouse i.v., 5th day", "result": "44.6±3.9 × 10^3"}, {"measurement": "Immunogenic activity", "setting": "[2]; 45.5 μg/mouse", "result": "no immunogenic activity"}, {"measurement": "Amount of antibody-forming cells per 10^6 spleen cells", "setting": "[2]; 45.5 μg/mouse, i.v., 5th day", "result": "472.2±52.4 cells per 10^6 spleen cells"}, {"measurement": "Amount of antibody-forming cells per spleen", "setting": "[2]; 45.5 μg/mouse, i.v., 5th day", "result": "44.6±3.9 × 10^3"}, {"measurement": "Effect on relative amount of AFC (per 10^6 spleen cells)", "setting": "[2]; [6]", "result": "+15.9 p > 00.05%"}, {"measurement": "Effect on total AFC amount (per spleen)", "setting": "[2]; [6]", "result": "+10.1 p > 0.05%"}, {"measurement": "Effect on hemagglutinin titers", "setting": "[2]; 45.5 μg/mouse, i.v., vs control", "result": "+4.8 p > 0.05%"}, {"measurement": "Spleen index", "setting": "[2]; 45.5 μg/mouse, i.v.", "result": "6.1 ± 0.3 10^−3"}, {"measurement": "immunostimulating effect in vivo in micelle form", "setting": "[2]; 91 μg/mouse", "result": "display immunostimulating effect in vivo"}, {"measurement": "Amount of antibody-forming cells per 10^6 spleen cells", "setting": "[2]; 91 μg/mouse, i.v., 5th day", "result": "827.7±34.6 cells per 10^6 spleen cells"}, {"measurement": "Amount of antibody-forming cells per spleen", "setting": "[2]; 91 μg/mouse, i.v., 5th day", "result": "60.3±4.1 × 10^3"}, {"measurement": "Amount of hemagglutinins", "setting": "[2]; 91 μg/mouse, i.v.", "result": "8.0±0.3", "unit": "Log2 T"}, {"measurement": "Spleen index", "setting": "[2]; 91 μg/mouse, i.v.", "result": "6.2 ± 0.2 10^−3"}, {"measurement": "Amount of antibody-forming cells per 10^6 spleen cells", "setting": "[2]; 136.5 μg/mouse, i.v., 5th day", "result": "961.3±56.5 cells per 10^6 spleen cells"}, {"measurement": "Amount of antibody-forming cells per spleen", "setting": "[2]; 136.5 μg/mouse, i.v., 5th day", "result": "107.0±8.5 × 10^3"}, {"measurement": "Amount of hemagglutinins", "setting": "[2]; 136.5 μg/mouse, i.v.", "result": "8.7±0.3", "unit": "Log2 T"}, {"measurement": "Spleen index", "setting": "[2]; 136.5 μg/mouse, i.v.", "result": "6.8 ± 0.3 10^−3"}, {"measurement": "immunostimulating action", "setting": "[2]; 91 and 136.5 μg/mouse", "result": "high immunostimulating action"}]}, {"molecule": "CC1=C(/C=C/C(C)=C/C=C/C(C)=C/C(=O)N[C@H](C(=O)O)[C@@H](C)OP(=O)(O)O)C(C)(C)CCC1", "note": "(relative stereo) [Compound 3, N-(all-trans-retinoyl)-o-phospho-L-threonine]", "values": [{"measurement": "Amount of hemagglutinins", "setting": "[3]; 45.5 μg/mouse i.v.", "result": "6.6 ± 0.2", "unit": "Log2 T"}, {"measurement": "Amount of hemagglutinins", "setting": "[3]; 91 μg/mouse i.v.", "result": "8.0 ± 0.3", "unit": "Log2 T"}, {"measurement": "Amount of hemagglutinins", "setting": "[3]; 136.5 μg/mouse i.v.", "result": "8.7 ± 0.3", "unit": "Log2 T"}, {"measurement": "Dose at which immunostimulating effect in vivo is displayed (micelle form)", "setting": "[4]", "result": 91, "unit": "μg/mouse"}, {"measurement": "Dose at which immunostimulating effect in vivo is displayed", "setting": "[5]", "result": 45.5, "unit": "μg/mouse"}]}, {"molecule": "CC1=C(/C=C/C(C)=C/C=C/C(C)=C\\C(=O)N[C@@H](COP(=O)(O)O)C(=O)O)C(C)(C)CCC1", "note": "(stereo in doubt) [Compound 2a, N-(13-cis-retinoyl)-o-phospho-L-serine]", "values": [{"measurement": "Amount of hemagglutinins", "setting": "[3]; 45.5 μg/mouse i.v.", "result": "7.2 ± 0.3", "unit": "Log2 T"}, {"measurement": "Amount of hemagglutinins", "setting": "[3]; 91 μg/mouse i.v.", "result": "7.5 ± 0.2", "unit": "Log2 T"}, {"measurement": "Amount of hemagglutinins", "setting": "[3]; 136.5 μg/mouse i.v.", "result": "8.2 ± 0.4", "unit": "Log2 T"}, {"measurement": "Dose at which immunostimulating effect in vivo is displayed (micelle form)", "setting": "[4]", "result": 91, "unit": "μg/mouse"}, {"measurement": "Immunogenic activity", "setting": "[5]; compound alone, 45.5 μg/mouse", "result": "no immunogenic activity; also recorded: do not inhibit immunogenic activity"}, {"measurement": "Dose at which immunostimulating effect in vivo is displayed", "setting": "[5]", "result": 45.5, "unit": "μg/mouse"}]}]}
